Assay [1] concerns K562 chronic myeloid leukemia cells. The assay can be described thus: Apoptosis detection with fluorogenic caspase substrate Caspalux6-J1D2 in bulk and in drops. To be noted: K562 cells treated with Imatinib for 24 hours; both bulk and drop experiment (FIG. 7). The class given is cell-based.
Experimental: Single K562 chronic myeloid leukemia cells were introduced to the drug combinations by picoinjecting a cell suspension to the merged drops at a concentration known to obtain a Poisson distribution with rate λ (lambda)=0.1, and incubated at 37° C. for 24 hours.
By adding a fluorogenic substrate, caspalux6-J1D2, which is specifically cleaved by increased caspase 3 and caspase 3-like activities during apoptosis, apoptosis of cells in drops can be determined.
The next assay concerns Leukemia K562 cells. The assay is described as follows: Apoptosis and necrosis by Annexin V / propidium iodide staining of cells in agarose gel particles. The class given is cell-based. To be noted: 48 hr incubation, drops containing 20 micrograms/mL Imatinib mixed at a 1:1 ratio (10 micrograms/mL per FIG. 12), PI and Annexin V staining.

Experimental for Leukemia K562 cells: In this example, first cells are mixed with molten low melt agarose at 37° C. and together incorporated into droplets. […] An UltraPure low melting point agarose is used in this experiment, which melts at 65.5° C., remains fluid at 37° C. and becomes solid rapidly at temperatures below 25° C. […] In this example, agarose powder was dissolved into PBS and autoclaved to prepare a sterilized 2% (w/v) agarose solution. Cells were counted and suspend in a DMEM culture media with 40% fetal bovine serum, and the cell suspension was mixed with agarose solution at 1:1 volume ratio. The mixture of cells and agarose gel was flowed into the sample inlet of a microfluidic drop-making device, and HFE7500 oil with 2% surfactant was flowed into the oil inlet to cause the cell-containing agarose gel to produce 80 micrometer drops. The generated gel-in-oil drops were collected into a pre-cooled eppendorf tube in an ice bath.
The drops containing agarose gel particles were collected into a pre-cooled eppendorf tube, after which the injected cell-containing agarose gel remained spherical. In the following steps, the agarose gel particles were injected into the drop containing drug combination and drug barcodes, followed by incubation, destabilization, staining, washing and FACS to obtain the gel particles containing positive cells. […]

Take `Cc1ccc(NC(=O)c2ccc(CN3CCN(C)CC3)cc2)cc1Nc1nccc(-c2cccnc2)n1` [Imatinib]: the “apoptotic signal (Caspalux6-J1D2 fluorescence)” value in assay [1] is listed as “clear apoptotic signal”. Besides, the “apoptotic and necrotic cells” value with Leukemia K562 cells is on record as “About 70%”.

The record behind these values is patent publication US20170029813A1, “METHODS AND SYSTEMS FOR DROPLET TAGGING AND AMPLIFICATION” (President and Fellows of Harvard College, priority 2014, published 2017).
